Values of other authors in CN103919735A, “一种盐酸坦索罗辛缓释微丸及其制备方法” (Pharmaceutical (wuhan) Co Ltd, priority 2014, dated 2014).

System: BPH patients [BPH患者]
Conditions: for relief of LUTS caused by BPH (in words): large number of studies

SMILES	relief of LUTS caused by BPH (in words)	efficacy in long-term use (in words) (clinical study of 6 years in BPH, stated for α1 receptor blockers)	time to symptom improvement after treatment (clinical, BPH)
CC(C)(C)NC(=O)[C@H]1CC[C@H]2[C@@H]3CC[C@H]4NC(=O)C=C[C@]4(C)[C@H]3CC[C@]12C [非那雄胺]	均能有效缓解	–	–
CCOc1ccccc1OCCN[C@H](C)Cc1ccc(OC)c(S(N)(=O)=O)c1 [盐酸坦索罗辛]	均能有效缓解	能够维持稳定的疗效	48 h
